{"source": "patent US10945972B2", "about": "“Particulate materials” (Nektar Therapeutics, priority 2002, dated 2021)", "format_in_all_cases": "physicochemical", "key": {"[1]": {"assay": "Particle size by AeroSizer time-of-flight (Example 1)", "conditions": "aerodynamic-equivalent volume mean diameter", "description": "(§1) PSD measurements were performed using firstly, AEROSIZER® time-of-flight instrument equipped with AERO-[…]® (TSI Inc., Minneapolis. USA) and secondly, laser diffraction sensor Helos with dry-powder air-dispersion system Rodos (Sympatec GmbH. Germany). The volume mean particle diameter, VMD, was obtained for both instruments using software options. In the general case of non-spherical particles, these instruments cannot provide the exact value of VMD, however, the time-of-flight technique gives an aerodynamic-equivalent particle diameter, whereas the laser diffraction method provides the geometric projection-equivalent diameter. These diameters afford the complementary information on PSD and therefore can be used for comparative size analysis."}, "[2]": {"assay": "Particle size by Helos/Rodos laser diffraction (Example 1)", "conditions": "geometric projection-equivalent volume mean diameter", "description": "as §1"}, "[3]": {"assay": "Laser diffraction HELOS/RODOS of TBS (Example 8)", "conditions": "2 bar, listed as TBS 2", "description": "A small amount of TBS powder was analysed using a laser diffraction RODOS/VIBRI dispersing system (HELOS/RODOS, Sympatec GmbH, Clausthal-Zellerfeld, Germany). The instrument consisted of a laser sensor HELOS and a RODOS dry-powder air-dispersion system (Sympatec GmbH, Clausthal-Zellerfeld, Germany). Different measurement ranges of the laser sensor were provided by interchangeable objectives R1 (0.1-35 μm) and R2 (0.25-87.5 μm). The rate of powder dispersion was controlled by adjusting the pressure of the compressed air flow. A pressure of 2 bar was sufficient to achieve deagglomeration of primary particles without attrition."}, "[4]": {"assay": "AEROSIZER time-of-flight of TBS (Example 8)", "conditions": "listed as TBS 2", "description": "The TBS samples were also analysed using an AEROSIZER™ (Amherst Process Instruments, Amherst, Mass., USA), provided with pulse jet disperser, the AERODISPERSER™, to introduce the powders to the instrument. The measurement range of the AEROSIZER™ is nominally from 0.2 to 200 μm of aerodynamic diameter with the standard 750 μm diameter tapered nozzle. The micronized and SEDS™ TBS samples were analyzed for 300 seconds in triplicate using normal deagglomeration conditions, feed rate (5000 particles per second) and medium shear force (0.5 psi)."}, "[5]": {"assay": "Differential scanning calorimetry (Example 8)", "conditions": "DSC, 10° C. min^−1", "description": "Prior to sample analysis, a baseline was obtained which was used as a background. […] Temperature and enthalpy were calibrated with the standard materials indium (melting point=156.6° C.) and zinc (melting point=419.5° C.). Samples (1-10) were accurately weighed into pierced, crimped aluminium pans and heated at 10° C. min^−1 over a heating range of 25-290° C. under a nitrogen purge. A chiller unit was used in conjunction with the calorimeter to attain the lower temperatures."}, "[6]": {"assay": "Inverse gas chromatography of TBS (Example 8)", "description": "An empty GC column was uniformly packed with the powder of interest (TBS). Pre-silanized commercially available straight glass columns of 30 cm length with a 3 mm internal diameter were used in this investigation. The silanation procedure was necessary to minimize active sites on the inner glass surfaces, which strongly interact with polar probes. Each column was packed at the detector end with a small amount of silanised glass wool, was clipped to a stand and powder was added through a glass funnel with the aid of a mechanical column packer (tapping) to improve powder flow and remove any air gaps. […] A. Hewlett Packard 6890 Series Gas Chromatograph (GC) (Hewlett Packard, Penna, USA) oven equipped with an autosampler was used to control the solvent temperature. The 6890 GC data acquisition system was used to record data from a thermal conductivity detector (TCD) and flame ionisation detector (FID) with the instrument modified for IGC by Surface Measurement Systems (SMS), Manchester, UK. The combination of detectors allowed sensitive analysis of both organic vapour elution and water (although RH was not raised above 0% for these experiments).\nThe whole system was fully automated by control software (SMS iGC Controller v1.3) and the data analyzed using SMS iGC Analysis macros. Prior to analysis, each column was equilibrated at 30° C. and 0% relative humidity (RH) for 5 hours by passing dry helium gas through the column. Helium gas was also used as the carrier gas. Hydrogen and compressed air flow rates were set at 40 and 450 ml min respectively for the FID. The chromatograph injection port was maintained at 80° C., TCD detector at 150° C. and the FID detector at 150° C. Column temperature was set at 30° C. throughout analysis. Data were obtained by flowing helium gas at 10 ml min^−1 through the sinalized glass column packed with a known weight of powdered material and injecting small amounts (concentration P/Po=0.05) of a range of probe vapors with different polarities. The retention times of the probes were measured using SMS iGC Controller v1.3 software, at infinite dilution or near zero surface coverage (equivalent to 10^−4-10^−7 μl of liquid) where retention is independent of the quantity of probe injected. For each sample, two columns were prepared and analysed by employing a method based on standard settings, which allows the precise control and measurement of experimental variables. This is essential in producing meaningful results. The data were used to calculate the dispersive and non-dispersive forces acting at TBS particle surfaces using the method developed by Schultz and co-workers (J. Schultz, L. Lavielle and C. Martin. The role of the interface in carbon fibre-epoxy composites, J. Adhesion, 23, 45-60 (1987))."}, "[7]": {"assay": "AEROFLOW powder avalanching (Example 8)", "conditions": "listed as TBS 2", "description": "An AEROFLOW™ powder avalanching apparatus (Amherst Process Instruments, API, Amherst, USA) was employed to analyze the dynamic avalanching behaviour of micronized and SC processed TBS samples. The AEROFLOW™ apparatus consists of a transparent rotating drum with a port at the front. A white light source is positioned in front of the drum and a masked array of photocells is behind the drum. To measure avalanching, 50 ml of the drug powder was added to the drum, which is about 15% of its total volume to ensure good powder mixing during the operation. As the drum rotates, the powder bed is carried upwards until an unstable state is reached and an avalanche occurs.\nThe time between successive avalanches was recorded by the projection of the light beam through the drum onto the photocell array. The photocells generated a voltage dependent on the amount of light falling on the cells and the area of unmasked photocells shielded from the light source by the powder. The voltage output (transmitted light intensity) was recorded by a computer, which translates the output as powder movement using a technique disclosed in B. H. Kaye. Characterizing the flowability of a powder using the concepts of fractal geometry and chaos theory, Part. Part. Charact. 14: 53-66 (1997). Each TBS sample was tested in duplicate and mean avalanche time and irregularity (scatter) of avalanches were recorded."}}, "data": [{"smiles": "CC(C)(C)NCC(O)c1cc(O)cc(O)c1", "note": "(stereo not shown) [TSB SEDS, terbutaline sulphate]", "values": [{"measurement": "VMD (μm) (Time of flight)", "setting": "[1]", "value": 3.4, "unit": "μm"}, {"measurement": "VMD (μm) (laser diffraction)", "setting": "[2]", "value": 3.43, "unit": "μm"}, {"measurement": "Sympatec D4, 3 (μm)", "setting": "[3]", "value": 3.43, "unit": "μm"}, {"measurement": "Aerosizer D4, 3 (μm)", "setting": "[4]", "value": 3.44, "unit": "μm"}, {"measurement": "Enthalpy of Fusion", "setting": "[5]; listed as TBS 2", "value": 88.68, "unit": "J/g"}, {"measurement": "Enthalpy of Fusion", "setting": "[5]; listed as TBS2", "value": 88.68, "unit": "J/g"}, {"measurement": "γs^D mJm^−2", "setting": "[6]; 30° C., 0% RH, listed as TBS 2", "value": 55.05, "unit": "mJm^−2"}, {"measurement": "KA", "setting": "[6]; listed as TBS 2", "value": 0.778}, {"measurement": "−ΔGA^SP (kJ/mol) Acetone", "setting": "[6]; probe acetone, listed as TBS 2", "value": 10.42, "unit": "kJ/mol"}, {"measurement": "−ΔGA^SP (kJ/mol) Dioxane", "setting": "[6]; probe dioxane", "value": 14.20, "unit": "kJ/mol"}, {"measurement": "−ΔGA^SP (kJ/mol) Ethyl acetate", "setting": "[6]; probe ethyl acetate, listed as TBS 2", "value": 13.76, "unit": "kJ/mol"}, {"measurement": "−ΔGA^SP (kJ/mol) Toluene", "setting": "[6]; probe toluene, listed as TBS 2", "value": 2.85, "unit": "kJ/mol"}, {"measurement": "Irregularity of flow", "setting": "[7]; 100 sec/rev", "value": 1.17, "unit": "s"}, {"measurement": "Mean time to avalanche", "setting": "[7]; 100 sec/rev", "value": 3.30, "unit": "s"}, {"measurement": "Irregularity of flow", "setting": "[7]; 145 sec/rev", "value": 2.12, "unit": "s"}, {"measurement": "Mean time to avalanche", "setting": "[7]; 145 sec/rev", "value": 4.91, "unit": "s"}]}]}
